This note sets out measurements from patent publication US11034654B2, “2,3-dihydroisoindole-1-carboxamides useful as ROR-gamma modulators” (AstraZeneca AB, priority 2017, dated 2021).

The target in assay [1] is T1, RORγ ligand binding domain (Homo sapiens, UniProt P51449). Nature of the assay: RORγ radioligand competition binding assay (SPA). As to conditions: competition with tritiated 2-(4-(ethylsulfonyl)phenyl)-N-(4-(2-(methoxymethyl)phenyl)thiophen-2-yl)acetamide (25 nM), hRORγ LBD. From the text:
RORγ Radioligand Competition Binding Assay The aim of this assay is to identify compounds which bind to the RORγ ligand binding domain, by competing with tritiated 2-(4-(ethylsulfonyl)phenyl)-N-(4-(2-(methoxymethyl)phenyl)thiophen-2-yl)acetamide. Human RORγ (Ligand Binding Domain (RORγ LBD) was expressed in E. coli (BL21DE3 Star) as a fusion protein: N-6×HN-Avi-GST-TCS-hRORγ LBD (S258-K518) subcloned into pET24a(+). The LBD (258-518) is underlined in the protein sequence: The scintillation proximity assay (SPA) was run in white polystyrene flat-bottom 384-well plates (Greiner, cat. No. 781075). Assays were carried out in 40 μl reaction volumes. Various concentrations of test ligands in 0.4 microlitres of DMSO were added to assay plates using an acoustic liquid dispenser. 4 nM purified N-(HN)6-GST-TCS-hRORγ (258-518) was mixed with 40 micrograms Yttrium oxide (YOx) glutathione SPA imaging beads in assay buffer (20 mM Tris, 150 mM NaCl, 10% Glycerol, 0.25% CHAPS, 1 mM TCEP) prior to adding 30 microlitres to test ligands. Assay plates were incubated for one hour at room temperature before adding 10 microlitres tritiated 2-(4-(ethylsulfonyl)phenyl)-N-(4-(2-(methoxymethyl)phenyl)thiophen-2-yl)acetamide to test plates in assay buffer (final concentration, 25 nM). Test plates were incubated for 16 hours and read using a LEADseeker Multimodality imaging instrument. The raw data was analysed and IC50 and Ki values for the compounds were calculated using Genedata Screener software. Raw data was transformed to % effect using equation 1: Compound % effect=100*[(X−min)/(max−min)], where X represents the normalized value for the compound based on the Min (vehicle) and Max (reference compound) inhibition controls. The concentration of test ligand that inhibited radioligand binding by 50% (i.e., the IC50) was calculated by plotting the % effect versus test ligand concentration and fitting the data using the Genedata Screener Smart fit algorithm. Ki is calculated from the IC50 value using the equation Ki=IC50/1+[L]/Kd) where [L]=25 nmol/L and Kd=17 nmol/L

Assay [2] concerns the target T1, RORγ ligand binding domain. Nature of the assay: RORγ co-factor recruitment assay (FRET). Type of assay: biochemical. Details: made in house; host or cells: E. coli BL21DE3 Star. The note with it: inhibition of recruitment of SRC-1 peptide (NCOA1_677-700) to hRORγ LBD, HTRF read-out. From the text: RORγ Co-Factor Recruitment Assay A high throughput coactivator binding assay for the identification of inverse agonists of the recruitment of peptide SRC-1 (NCOA1_677-_700) to the RORγ ligand binding domain was established. The ligand binding domain (LBD) of human RORγ was expressed in E. coli (BL21DE3 Star) as a fusion protein: N-6×HN-MBP-Avi-TCS-hRORγLBD(P260-K518) subcloned into pET24a(+). The LBD (P260-K518) is underlined in the protein sequence: The assay was run in black 384 well plates (Greiner cat no: 784900). Various concentrations of test ligands in 0.1 microlitres DMSO were dispensed to assay plates using an Echo acoustic dispenser. Two pre-mixes were prepared and incubated for 1 h at room temp in the dark. Pre-mix 1 comprised 100 nM Protein (Biotinylated HN-Avi-MBP-TCS-hRORγ (258-518)) and 60 nM Streptavidin APC in assay buffer, 50 mM MOPS pH7.4, 50 mM KF, 0.003% (w/v) CHAPS, 10 mM DTT and 0.01% (w/v) BSA and pre-mix 2 comprised 160 nM biotinylated SRC-1 peptide (NCOA1-677-700) and 20 nM Europium-W8044 labelled Streptavidin in assay buffer. Five microlitres of pre-mix 2 was dispensed to assay plates containing 0.1 microlitres of test compound and was incubated for 15 min prior to adding five microlitres of pre-mix 1. Plates were incubated at rt for 1 hour in the dark, prior to reading in a Pherastar multi-mode plate reader using HTRF filter set (ex 320, em 612 and 665). The FRET signal at 665 nm was divided by the signal at 612 nm and multiplied by 10,000 to generate a signal ratio value for each well. The raw data was transformed to % effect using the equation: Compound % effect=100*[(X−min)/(max−min)], where X represents the normalized value for the compound based on the Min (vehicle) and Max (reference compound) inhibition control. The concentration of test ligand that inhibited the activity by 50% (i.e., the IC50) was calculated by plotting the % effect versus test ligand concentration and fitting the data using the Genedata Screener Smart fit algorithm.
For orientation: In TR-FRET formats the signal depends on donor and acceptor labels being close together.

`COC(c1ccc(NC(=O)C2c3ccc(S(C)(=O)=O)cc3CN2C(C)=O)cc1)(C(F)(F)F)C(F)(F)F` (centres unmarked) [Example 28, 2-Acetyl-N-[4-(1,1,1,3,3,3-hexafluoro-2-methoxypropan-2-yl)phenyl]-5-(methylsulfonyl)-2,3-dihydro-1H-isoindole-1-carboxamide]: the IC50 in assay [1] was 7.94 nM; in assay [2] it was 39.8 nM.
The corresponding values for `COC(=O)N1Cc2cc(S(C)(=O)=O)ccc2C1C(=O)Nc1ccc(C(C#N)(C(F)(F)F)C(F)(F)F)cc1` (centres unmarked) [Example 7, Methyl 1-{[4-(2-cyano-1,1,1,3,3,3-hexafluoropropan-2-yl)phenyl]carbamoyl}-5-(methylsulfonyl)-1,3-dihydro-2H-isoindole-2-carboxylate] are 12.6 nM and 50.1 nM.
In the case of `CC(=O)N1Cc2cc(S(C)(=O)=O)ccc2C1C(=O)Nc1ccc(C(CC(=O)OC(C)(C)C)(C(F)(F)F)C(F)(F)F)cc1` (centres unmarked) [Example 44, tert-Butyl 3-[4-({[2-acetyl-5-(methylsulfonyl)-2,3-dihydro-1H-isoindol-1-yl]carbonyl}amino)phenyl]-4,4,4-trifluoro-3-(trifluoromethyl)butanoate], the results for the half-maximal inhibitory concentration (IC50) in assay [1] and in assay [2] were 15.8 nM and more than 31600 nM, respectively.
The corresponding values for `CC(=O)N1Cc2cc(S(C)(=O)=O)ccc2C1C(=O)Nc1ccc(C(CC(=O)N2CC(C)(F)C2)(C(F)(F)F)C(F)(F)F)cc1` (centres unmarked) [Example 39, 2-Acetyl-5-(methylsulfonyl)-N-{4-[1,1,1-trifluoro-4-(3-fluoro-3-methylazetidin-1-yl)-4-oxo-2-(trifluoromethyl)butan-2-yl]phenyl}-2,3-dihydro-1H-isoindole-1-carboxamide] are 398 nM and more than 31600 nM.
Take `CS(=O)(=O)c1ccc2c(c1)CN(C(=O)CCN)C2C(=O)Nc1ccc(C(C#N)(C(F)(F)F)C(F)(F)F)cc1` (centres unmarked) [Example 11, 2-(3-Aminopropanoyl)-N-[4-[1-cyano-2,2,2-trifluoro-1-(trifluoromethyl)ethyl]phenyl]-5-methylsulfonyl-isoindoline-1-carboxamide]: the values for the IC50 in assay [1] and in assay [2] were 25.1 nM and 158 nM, respectively.
The corresponding values for `COCC(=O)N1Cc2cc(S(C)(=O)=O)ccc2C1C(=O)Nc1ccc(C(C#N)(C(F)(F)F)C(F)(F)F)cc1` (centres unmarked) [Example 8, N-[4-(2-Cyano-1,1,1,3,3,3-hexafluoropropan-2-yl)phenyl]-2-(methoxyacetyl)-5-(methylsulfonyl)-2,3-dihydro-1H-isoindole-1-carboxamide] are 12.6 nM and 50.1 nM.
The corresponding values for `CC(=O)N1Cc2cc(S(C)(=O)=O)ccc2C1C(=O)Nc1ccc(C(NCCS(C)(=O)=O)(C(F)(F)F)C(F)(F)F)cc1` (centres unmarked) [Example 26, 2-Acetyl-N-[4-(1,1,1,3,3,3-hexafluoro-2-{[2-(methylsulfonyl)ethyl]amino}propan-2-yl)phenyl]-5-(methylsulfonyl)-2,3-dihydro-1H-isoindole-1-carboxamide] are 631 nM and 1000 nM.
Regarding `CC(=O)N1Cc2cc(S(C)(=O)=O)ccc2C1C(=O)Nc1ccc(C(NCCOC(C)C)(C(F)(F)F)C(F)(F)F)cc1` (centres unmarked) [Example 27, 2-Acetyl-N-[4-(1,1,1,3,3,3-hexafluoro-2-{[2-(propan-2-yloxy)ethyl]amino}propan-2-yl)phenyl]-5-(methylsulfonyl)-2,3-dihydro-1H-isoindole-1-carboxamide], the 50% inhibitory concentration (IC50) in assay [1] is 7.94 nM; in assay [2], more than 31600 nM.
As for `CC(=O)N1Cc2cc(S(C)(=O)=O)ccc2C1C(=O)Nc1ccc(C(N(C)C)(C(F)(F)F)C(F)(F)F)cc1` (centres unmarked) [Example 25, 2-Acetyl-N-{4-[2-(dimethylamino)-1,1,1,3,3,3-hexafluoropropan-2-yl]phenyl}-5-(methylsulfonyl)-2,3-dihydro-1H-isoindole-1-carboxamide], the IC50 in assay [1] was 6.31 nM; in assay [2], 39.8 nM.
For the molecule `CS(=O)(=O)c1ccc2c(c1)CN(C(=O)CN)C2C(=O)Nc1ccc(C(C#N)(C(F)(F)F)C(F)(F)F)cc1` (centres unmarked) [Example 10, N-[4-(2-Cyano-1,1,1,3,3,3-hexafluoropropan-2-yl)phenyl]-2-glycyl-5-(methylsulfonyl)-2,3-dihydro-1H-isoindole-1-carboxamide], the values for the IC50 in assay [1] and in assay [2] were 25.1 nM and 79.4 nM, respectively.
As to `CC(=O)N1Cc2cc(S(C)(=O)=O)ccc2C1C(=O)Nc1ccc(C(CC(=O)OC(C)C)(C(F)(F)F)C(F)(F)F)cc1` (centres unmarked) [Example 40, Propan-2-yl 3-[4-({[2-acetyl-5-(methylsulfonyl)-2,3-dihydro-1H-isoindol-1-yl]carbonyl}amino)phenyl]-4,4,4-trifluoro-3-(trifluoromethyl)butanoate], the half-maximal inhibitory concentration (IC50) in assay [1] was 12.6 nM; in assay [2], more than 31600 nM.
For `CC(=O)N1Cc2cc(S(C)(=O)=O)ccc2C1C(=O)Nc1ccc(C(n2ccnn2)(C(F)(F)F)C(F)(F)F)cc1` (centres unmarked) [Example 29, 2-Acetyl-N-{4-[1,1,1,3,3,3-hexafluoro-2-(1H-1,2,3-triazol-1-yl)propan-2-yl]phenyl}-5-(methylsulfonyl)-2,3-dihydro-1H-isoindole-1-carboxamide], the IC50 was 39.8 nM in assay [1] and 100 nM in assay [2].
For `CNC(c1ccc(NC(=O)C2c3ccc(S(C)(=O)=O)cc3CN2C(C)=O)cc1)(C(F)(F)F)C(F)(F)F` (centres unmarked) [Example 24, 2-Acetyl-N-{4-[1,1,1,3,3,3-hexafluoro-2-(methylamino)propan-2-yl]phenyl}-5-(methylsulfonyl)-2,3-dihydro-1H-isoindole-1-carboxamide] the same measures were 31.6 nM and 50.1 nM.
Turning to `CCCNC(c1ccc(NC(=O)C2c3ccc(S(C)(=O)=O)cc3CN2C(C)=O)cc1)(C(F)(F)F)C(F)(F)F` (centres unmarked) [Example 16, 2-Acetyl-N-{4-[1,1,1,3,3,3-hexafluoro-2-(propylamino)propan-2-yl]phenyl}-5-(methylsulfonyl)-2,3-dihydro-1H-isoindole-1-carboxamide], the IC50 in assay [1] is 6.31 nM; in assay [2], 39.8 nM.
For `CS(=O)(=O)c1ccc2c(c1)CN(C=O)C2C(=O)Nc1ccc(C(C#N)(C(F)(F)F)C(F)(F)F)cc1` (centres unmarked) [Example 6, N-[4-(2-Cyano-1,1,1,3,3,3-hexafluoropropan-2-yl)phenyl]-2-formyl-5-(methylsulfonyl)-2,3-dihydro-1H-isoindole-1-carboxamide] the same measures were 10 nM and 39.8 nM.
The corresponding values for `CS(=O)(=O)c1ccc2c(c1)CN(C(=O)CCC(=O)O)C2C(=O)Nc1ccc(C(C#N)(C(F)(F)F)C(F)(F)F)cc1` (centres unmarked) [Example 9, 4-[1-{[4-(2-Cyano-1,1,1,3,3,3-hexafluoropropan-2-yl)phenyl]carbamoyl}-5-(methylsulfonyl)-1,3-dihydro-2H-isoindol-2-yl]-4-oxobutanoic acid] are 10 nM and 100 nM.

In general, IC50 refers to the concentration that gives 50% inhibition.
